Each compound was assayed against Autotaxin (ENPP2) (Mus musculus) (UniProt Q9R1E6) (assay: Inhibition of recombinant mouse N-terminal polyHis-tagged ATX-beta (Ser49 to Ile862 residues) expressed in HEK293 cells assessed as reduction in cleavage of LPC into LPA and choline using LPC(16:0) as substrate by Amplex red reagent based fluorescence assay).

SMILES | IC50 [µM]
O=C(NCc1ccc(OCc2ccccc2)cc1)[C@@H]1CCC(=O)N1Cc1ccccc1 | > 5
O=C(NCCc1c[nH]cn1)c1ccc(COc2ccc(CNC(=O)[C@@H]3CCC(=O)N3Cc3ccccc3)cc2)cc1 | > 5
O=C(NCCc1c[nH]cn1)c1ccc(COc2ccc(CNC(=O)[C@@H]3CCC(=O)N3Cc3ccc(F)cc3)cc2)cc1 | > 5
O=C(NCc1ccc(OCc2ccc(-c3nn[nH]n3)cc2)cc1)[C@@H]1CCC(=O)N1Cc1ccccc1 | > 5
O=C(NCc1ccc(OCc2ccc(-c3nn[nH]n3)cc2)cc1)[C@@H]1CCC(=O)N1Cc1ccc(F)cc1 | > 5
O=C(NCc1ccc(OCc2cn(-c3ccccc3)nn2)cc1)[C@@H]1CCC(=O)N1Cc1ccccc1 | > 5
O=C(NCc1ccc(OCc2ccncc2)cc1)[C@@H]1CCC(=O)N1Cc1ccccc1 | > 5
O=C(O)c1ccc(COc2ccc(CN3C(=O)CC[C@H]3C(=O)NCc3ccccc3)cc2)cc1 | > 5
O=C(NCc1ccccc1)[C@@H]1CCC(=O)N1Cc1ccc(OCc2ccc(-c3nn[nH]n3)cc2)cc1 | > 5
NS(=O)(=O)c1ccc(C(=O)NC[C@@H]2CCC(=O)N2Cc2ccccc2)cc1 | > 5
COC(=O)c1ccc(COc2ccc(CN3C(=O)CC[C@H]3Cn3ccnc3)cc2)cc1 | > 5
O=C(O)c1ccc(COc2ccc(CN3C(=O)CC[C@H]3Cn3ccnc3)cc2)cc1 | > 5
O=C(NCc1ccccc1)[C@@H]1CCC(=O)N1Cc1ccccc1 | > 5
O=C(NCc1ccc(O)cc1)[C@@H]1CCC(=O)N1Cc1ccccc1 | > 5
O=C(O)c1ccc(COc2ccc(CNC(=O)[C@@H]3CCCN3Cc3ccccc3)cc2)cc1 | > 5
O=C(O)c1ccc(COc2ccc(CNC(=O)[C@H]3CCCN3Cc3ccc(F)cc3)cc2)cc1 | > 5
O=C(NCc1ccc(OCc2ccc(-c3nn[nH]n3)cc2)cc1)[C@@H]1CCCN1Cc1ccccc1 | > 5
O=C(O)c1ccc(COc2ccc(CN3CCC[C@H]3C(=O)NCc3ccccc3)cc2)cc1 | > 5
O=C(NCc1ccccc1)[C@@H]1CCCN1Cc1ccc(OCc2ccc(-c3nn[nH]n3)cc2)cc1 | > 5

More lines, now with the values ahead:

IC50 [µM] | SMILES
4.5 | O=C(O)c1ccc(COc2ccc(CNC(=O)[C@@H]3CCC(=O)N3Cc3ccccc3)cc2)cc1
> 5 | O=C(O)c1ccc(COc2ccc(CNC(=O)[C@H]3CCC(=O)N3Cc3ccccc3)cc2)cc1
> 5 | O=C(O)c1ccc(COc2ccc(CNC(=O)[C@@H]3CCC(=O)N3Cc3ccc(Br)cc3)cc2)cc1
> 5 | O=C(O)c1ccc(COc2ccc(CNC(=O)[C@@H]3CCC(=O)N3Cc3ccc(F)cc3)cc2)cc1
> 5 | O=C(O)c1ccc(COc2ccc(CNC(=O)[C@@H]3CCC(=O)N3Cc3ccc(C(F)(F)F)cc3)cc2)cc1
> 5 | O=C1CC[C@@H](C(=O)NCc2ccc(OCc3ccc(C(=O)O)cc3)cc2)N1
> 5 | COC(=O)c1ccc(COc2ccc(CNC(=O)[C@@H]3CCC(=O)N3Cc3ccccc3)cc2)cc1
> 5 | NS(=O)(=O)c1ccc(COc2ccc(CNC(=O)[C@@H]3CCC(=O)N3Cc3ccccc3)cc2)cc1
> 5 | NS(=O)(=O)c1ccc(COc2ccc(CNC(=O)[C@@H]3CCC(=O)N3Cc3ccc(F)cc3)cc2)cc1
> 5 | NS(=O)(=O)c1ccc(COc2ccc(CNC(=O)[C@@H]3CCC(=O)N3Cc3ccc(C(F)(F)F)cc3)cc2)cc1
0.05 | CC1(C)OB(c2ccc(COc3ccc(CNC(=O)[C@@H]4CCC(=O)N4Cc4ccccc4)cc3)cc2)OC1(C)C
0.12 | CC1(C)OB(c2ccc(COc3ccc(CNC(=O)[C@@H]4CCC(=O)N4Cc4ccc(F)cc4)cc3)cc2)OC1(C)C
0.18 | CC1(C)OB(c2ccc(COc3ccc(CNC(=O)[C@H]4CCC(=O)N4Cc4ccccc4)cc3)cc2)OC1(C)C
0.7 | O=C(NO)c1ccc(COc2ccc(CNC(=O)[C@@H]3CCC(=O)N3Cc3ccccc3)cc2)cc1
0.035 | O=C(NCc1ccc(OCc2ccc(B(O)O)cc2)cc1)[C@@H]1CCC(=O)N1Cc1ccccc1
0.8 | O=C(O)c1ccc(COc2ccc(CNC(=O)[C@@H]3CCCN3Cc3ccc(F)cc3)cc2)cc1

Source: BindingDB's records for doi:10.1016/j.bmc.2019.115216 (National and Kapodistrian University of Athens, 2020)
